Measured values: patent US10669283B2, “Compound and pharmacologically acceptable salt thereof” (MEIJI SEIKA PHARMA CO., LTD., priority 2016, dated 2020)

What follows are compounds tested on PDE4 (assay: PDE4 inhibition, scintillation proximity assay (SPA)). Conditions: scintillation proximity assay (SPA); evaluated as classes A, B, C; read-out: PDE4 Inhibitory Activity (concentration for the inhibition rate of 50%).
Format: biochemical
In short: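 Scintillation proximity read-out: [2,8-3H]-cAMP hydrolysis by PDE4 ran 120 min at room temperature in Tris-HCl pH 7.4 buffer with 8.3 mM MgCl2, 1.7 mM EGTA and 3 mg/mL BSA. Bead-bound product (YSi-SPA with ZnSO4, 15 min) counted; blank lacks enzyme, control has DMSO only.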
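Wherever PDE4 Inhibitory Activity (concentration for the inhibition rate of 50%) is given: A below 100 nM B 100 to below 1000 nM C 1000 nM or more.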

**Q.** O=C(O)c1cc(-c2nccs2)c2oc(N3CC4CC(C3)N4)nc2c1OC(F)(F)F [Example 190, 2-(3,6-Diazabicyclo[3.1.1]heptan-3-yl)-7-(thiazol-2-yl)-4-(trifluoromethoxy)benzo[d]oxazole-5-carboxylic acid] was tested. Which IC50 did it give?
**A.** Its IC50 is > 1 µM.

**Q.** With NS(=O)(=O)c1cc(-c2nccs2)c2oc(N3CC4CCCC(C3)N4)nc2c1 [Example 59, 2-(3,9-Diazabicyclo[3.3.1]nonan-3-yl)-7-(thiazol-2-yl) benzo[d]oxazole-5-sulfonamide] as the compound, how does the IC50 read?
**A.** The IC50 was < 0.1 µM.

**Q.** For OC(O)(c1ccc(-c2nccs2)c2oc(N3CC4CCC(C3)N4)nc12)C(F)(F)F [Example 233, 1-(2-(3,8-Diazabicyclo[3.2.1]octan-3-yl)-7-(thiazol-2-yl)benzo[d]oxazol-4-yl)-2,2,2-trifluoroethane-1,1-diol], which IC50 is on record?
**A.** Its IC50 is < 0.1 µM.

**Q.** COC(C)c1cc(-c2nccs2)c2oc(N3CC4CC(C3)N4)nc2c1C(F)(F)F (centres unmarked) [Example 185, 2-(3,6-Diazabicyclo[3.1.1]heptan-3-yl)-5-(1-methoxyethyl)-7-(thiazol-2-yl)-4-(trifluoromethyl)benzo[d]oxazole] was tested. Which IC50 did it give?
**A.** Its IC50 is < 0.1 µM.

**Q.** How did the IC50 turn out when Oc1cc(-c2nccs2)c2oc(N3CC4CC(C3)N4)nc2c1 [Example 64, 2-(3,6-Diazabicyclo[3.1.1]heptan-3-yl)-7-(thiazol-2-yl)benzo[d]oxazol-5-ol] was run?
**A.** Its IC50 is < 0.1 µM.

**Q.** With CS(=O)(=O)c1cc(-c2nccs2)c2oc(N3CC4CCCC(C3)N4)nc2c1 [Example 47, 2-(3,9-Diazabicyclo[3.3.1]nonan-3-yl)-5-(methylsulfonyl)-7-(thiazol-2-yl)benzo[d]oxazole] as the compound, how does the IC50 read?
**A.** The IC50 was < 0.1 µM.

**Q.** Which IC50 does the source give for CCOC(c1cc(-c2nccs2)c2oc(N3CC4CCC(C3)N4)nc2c1)C(F)(F)F (centres unmarked) [Example 148, 2-(3,8-Diazabicyclo[3.2.1]octan-3-yl)-5-(1-ethoxy-2,2,2-trifluoroethyl)-7-(thiazol-2-yl)benzo[d]oxazole] here?
**A.** Its IC50 is < 0.1 µM.

**Q.** Which IC50 does the source give for CS(=O)(=O)c1cc(-c2nccs2)c2oc(N3CC4CC(C3)N4)nc2c1 [Example 46, 2-(3,6-Diazabicyclo[3.1.1]heptan-3-yl)-5-(methylsulfonyl)-7-(thiazol-2-yl)benzo[d]oxazole] here?
**A.** Its IC50 is < 0.1 µM.

**Q.** With COC(c1cc(-c2nccs2)c2oc(N3CC4CC(C3)N4)nc2c1OC(F)(F)F)C(F)F (centres unmarked) [Example 208, 2-(3,6-Diazabicyclo[3.1.1]heptan-3-yl)-5-(2,2-difluoro-1-methoxyethyl)-7-(thiazol-2-yl)-4-(trifluoromethoxy) benzo[d]oxazole] as the compound, how does the IC50 read?
**A.** Its IC50 is < 0.1 µM.

**Q.** How did the IC50 turn out when OCc1ccc(-c2nccs2)c2oc(N3CC4CC(C3)N4)nc12 [Example 133, (2-(3,6-Diazabicyclo[3.1.1]heptan-3-yl)-7-(thiazol-2-yl)benzo[d]oxazol-4-yl)methanol] was run?
**A.** Its IC50 is < 0.1 µM.

**Q.** For CC(C)(O)COc1ccc(-c2nccs2)c2oc(N3CC4CC(C3)N4)nc12 [Example 279, 1-((2-(3,6-Diazabicyclo[3.1.1]heptan-3-yl)-7-(thiazol-2-yl)benzo[d]oxazol-4-yl)oxy)-2-methylpropan-2-ol], which IC50 is on record?
**A.** The IC50 was < 0.1 µM.

**Q.** Which IC50 does the source give for OC(c1cc(-c2nccs2)c2oc(N3CC4CC(C3)N4)nc2c1)C(F)(F)F (centres unmarked) [Example 135, 1-(2-(3,6-Diazabicyclo[3.1.1]heptan-3-yl)-7-(thiazol-2-yl)benzo[d]oxazol-5-yl)-2,2,2-trifluoroethan-1-ol] here?
**A.** Its IC50 is < 0.1 µM.

**Q.** O=C(O)COC(c1ccc(-c2nccs2)c2oc(N3CC4CC(C3)N4)nc12)C(F)(F)F (centres unmarked) [Example 253, 2-(1-(2-(3,6-Diazabicyclo[3.1.1]heptan-3-yl)-7-(thiazol-2-yl)benzo[d]oxazol-4-yl)-2,2,2-trifluoroethoxy)acetic acid] was tested. Which IC50 did it give?
**A.** Its IC50 is < 0.1 µM.

**Q.** How did the IC50 turn out when COC(C)c1ccc(-c2nccs2)c2oc(N3CC4CCC(C3)N4)nc12 (centres unmarked) [Example 242, 2-(3,8-Diazabicyclo[3.2.1]octan-3-yl)-4-(1-methoxyethyl)-7-(thiazol-2-yl)benzo[d]oxazole] was run?
**A.** Its IC50 is < 0.1 µM.

**Q.** Clc1ccc(-c2nccs2)c2oc(N3CC4CCC(C3)N4)nc12 [Example 36, 2-(3,8-Diazabicyclo[3.2.1]octan-3-yl)-4-chloro-7-(thiazol-2-yl)benzo[d]oxazole] was tested. Which IC50 did it give?
**A.** The IC50 was < 0.1 µM.

**Q.** Which IC50 does the source give for N#CCOC(c1ccc(-c2nccs2)c2oc(N3CC4CCC(C3)N4)nc12)C(F)(F)F (centres unmarked) [Example 228, 2-(1-(2-(3,8-Diazabicyclo[3.2.1]octan-3-yl)-7-(thiazol-2-yl)benzo[d]oxazol-4-yl)-2,2,2-trifluoroethoxy)acetonitrile] here?
**A.** Its IC50 is < 0.1 µM.

**Q.** How did the IC50 turn out when COC(C)(C)c1cc(-c2nccs2)c2oc(N3CC4CC(C3)N4)nc2c1OC(F)(F)F [Example 199, 2-(3,6-Diazabicyclo[3.1.1]heptan-3-yl)-5-(2-methoxypropan-2-yl)-7-(thiazol-2-yl)-4-(trifluoromethoxy)benzo[d]oxazole] was run?
**A.** The IC50 was < 0.1 µM.

**Q.** With COC(C)(C)c1cc(-c2nccs2)c2oc(N3CC4CC(C3)N4)nc2c1C(F)(F)F [Example 176, 2-(3,6-Diazabicyclo[3.1.1]heptan-3-yl)-5-(2-methoxypropan-2-yl)-7-(thiazol-2-yl)-4-(trifluoromethyl)benzo[d]oxazole] as the compound, how does the IC50 read?
**A.** Its IC50 is < 0.1 µM.

**Q.** O=C(c1cc(-c2nccs2)c2oc(N3CC4CCC(C3)N4)nc2c1OC(F)(F)F)N1CC(O)(C(F)(F)F)C1 [Example 194, (2-(3,8-Diazabicyclo[3.2.1]octan-3-yl)-7-(thiazol-2-yl)-4-(trifluoromethoxy)benzo[d]oxazol-5-yl)(3-hydroxy-3-(trifluoromethyl)azetidin-1-yl)methanone] was tested. Which IC50 did it give?
**A.** Its IC50 is 0.1 to 1 µM.

**Q.** How did the IC50 turn out when CC(=O)OC(c1cc(-c2nccs2)c2oc(N3CC4CCC(C3)N4)nc2c1)C(F)(F)F (centres unmarked) [Example 141, 1-(2-(3,8-Diazabicyclo[3.2.1]octan-3-yl)-7-(thiazol-2-yl)benzo[d]oxazol-5-yl)-2,2,2-trifluoroethyl acetate] was run?
**A.** The IC50 was < 0.1 µM.

**Q.** For CC(C)(O)C1CC(Oc2ccc(-c3nccs3)c3oc(N4CC5CC(C4)N5)nc23)C1 (centres unmarked) [Example 267, 2-(3-((2-(3,6-Diazabicyclo[3.1.1]heptan-3-yl)-7-(thiazol-2-yl)benzo[d]oxazol-4-yl)oxy)cyclobutyl)propan-2-ol], which IC50 is on record?
**A.** Its IC50 is < 0.1 µM.

**Q.** With COC(C)c1cc(-c2nccs2)c2oc(N3CC4CC(C3)N4)nc2c1 (centres unmarked) [Example 111, 2-(3,6-Diazabicyclo[3.1.1]heptan-3-yl)-5-(1-methoxyethyl)-7-(thiazol-2-yl)benzo[d]oxazole] as the compound, how does the IC50 read?
**A.** The IC50 was < 0.1 µM.

**Q.** Which IC50 does the source give for Oc1cc(-c2nccs2)c2oc(N3CC4CCC(C3)N4)nc2c1 [Example 63, 2-(3,8-Diazabicyclo[3.2.1]octan-3-yl)-7-(thiazol-2-yl) benzo[d]oxazol-5-ol] here?
**A.** Its IC50 is < 0.1 µM.

**Q.** For OC(c1ccc(-c2nccs2)c2oc(N3CC4CC(C3)N4)nc12)C(F)(F)F (centres unmarked) [Example 120, 1-(2-(3,6-Diazabicyclo[3.1.1]heptan-3-yl)-7-(thiazol-2-yl)benzo[d]oxazol-4-yl)-2,2,2-trifluoroethan-1-ol], which IC50 is on record?
**A.** The IC50 was < 0.1 µM.

**Q.** For CC(O)(c1cc(-c2nccs2)c2oc(N3CC4CC(C3)N4)nc2c1)C(F)(F)F (centres unmarked) [Example 160, 2-(2-(3,6-Diazabicyclo[3.1.1]heptan-3-yl)-7-(thiazol-2-yl)benzo[d]oxazol-5-yl)-1,1,1-trifluoropropan-2-ol], which IC50 is on record?
**A.** The IC50 was < 0.1 µM.

Same assay, conditions: scintillation proximity assay; class symbols; read-out: PDE4 Inhibitory Activity

**Q.** CC(C)(O)C(F)(F)Oc1ccc(-c2nccs2)c2oc(N3CC4CC(C3)N4O)nc12 [Example 371, 3-(4-(1,1-difluoro-2-hydroxy-2-methylpropoxy)-7-(thiazol-2-yl)benzo[d]oxazol-2-yl)-3,6-diazabicyclo [3.1.1]heptan-6-ol] was tested. Which IC50 did it give?
**A.** The IC50 was < 0.1 µM.
